Results reported in US8410080B1, “2-methylene-vitamin D analogs and their uses” (Wisconsin Alumni Research Foundation, priority 2011, dated 2013).
“Also recorded” adds a separate entry of the source. Like-named read-outs stand apart in the source and are kept apart here.

Experiments:
[1] = tested on: 24-hydroxylase (24Ohase) gene promoter; assay: In vitro transcription assay, luciferase reporter in ROS 17/2.8 (bone) cells; assay type: cell-based; settings: for EC50: ROS 17/2.8 cells, 24-hydroxylase promoter-luciferase, sixteen hours after dosing, read-out: EC50, transcriptional activity in bone cells; for potency relative to 1,25(OH)2D3 in increasing transcription of the 24-hydroxylase gene: bone cells, fold more potent than 1,25(OH)2D3
Experimental: Transcription activity was measured in ROS 17/2.8 (bone) cells that were stably transfected with a 24-hydroxylase (24Ohase) gene promoter upstream of a luciferase reporter gene (Arbour et al., 1998). Cells were given a range of doses. Sixteen hours after dosing the cells were harvested and luciferase activities were measured using a luminometer. RLU=relative luciferase units.

[2] = tested on: Human promyelocytic leukemia (HL60) cells; assay: HL-60 differentiation (nitro blue tetrazolium reduction); assay type: cell-based; settings: for EC50: HL60 cells, four days of treatment, read-out: EC50, ability to promote HL60 differentiation; for potency on HL-60 cell differentiation compared to 1,25(OH)2D3, in words: HL-60 cells
Experimental: Serial dilutions were prepared so that a range of drug concentrations could be tested without changing the final concentration of ethanol (≦0.2%) present in the cell cultures.
Human promyelocytic leukemia (HL60) cells were grown in RPMI-1640 medium containing 10% fetal bovine serum. The cells were incubated at 37° C. in the presence of 5% CO2.
HL60 cells were plated at 1.2×10^5 cells/ml. Eighteen hours after plating, cells in duplicate were treated with drug. Four days later, the cells were harvested and a nitro blue tetrazolium reduction assay was performed (Collins et al., 1979; J. Exp. Med. 149:969-974). The percentage of differentiated cells was determined by counting a total of 200 cells and recording the number that contained intracellular black-blue formazan deposits. Verification of differentiation to monocytic cells was determined by measuring phagocytic activity (data not shown).

[3] = Bone calcium mobilization (serum calcium) in vitamin D-deficient rats; assay type: in vivo, rat; settings: for bone calcium mobilization activity (serum calcium), in words: dosages tested; for bone calcium mobilization activity (serum calcium), in words / mobilization of bone calcium at 780 pmol/day: 0.02% Ca diet; for mobilization of bone calcium at 780 pmol/day: 780 pmol/day for 4 consecutive days; for potency relative to the native hormone in releasing bone calcium stores: low calcium diet (0.02%), four consecutive ip doses
Experimental: (§1) Male, weanling Sprague-Dawley rats were placed on Diet 11 (Suda et al, J. Nutr. 100:1049, 1970) (0.47% Ca)+vitamins AEK for one week followed by Diet 11 (0.02% Ca)+vitamins AEK for 3 weeks. The rats were then switched to the same diet containing 0.47% Ca for one week followed by two weeks on the same diet containing 0.02% Ca. Dose administration began during the last week on 0.02% calcium diet. Four consecutive ip doses were given approximately 24 hours apart. Twenty-four hours after the last dose, blood was collected from the severed neck and the concentration of serum calcium determined by atomic absorption spectrometry as a measure of bone calcium mobilization. The first 10 cm of the intestine was also collected for intestinal calcium transport analysis using the everted gut sac method.

[4] = molecular target: T1, full-length recombinant rat vitamin D receptor (Rattus norvegicus, UniProt P13053)
T1 sequence (P13053 1-423): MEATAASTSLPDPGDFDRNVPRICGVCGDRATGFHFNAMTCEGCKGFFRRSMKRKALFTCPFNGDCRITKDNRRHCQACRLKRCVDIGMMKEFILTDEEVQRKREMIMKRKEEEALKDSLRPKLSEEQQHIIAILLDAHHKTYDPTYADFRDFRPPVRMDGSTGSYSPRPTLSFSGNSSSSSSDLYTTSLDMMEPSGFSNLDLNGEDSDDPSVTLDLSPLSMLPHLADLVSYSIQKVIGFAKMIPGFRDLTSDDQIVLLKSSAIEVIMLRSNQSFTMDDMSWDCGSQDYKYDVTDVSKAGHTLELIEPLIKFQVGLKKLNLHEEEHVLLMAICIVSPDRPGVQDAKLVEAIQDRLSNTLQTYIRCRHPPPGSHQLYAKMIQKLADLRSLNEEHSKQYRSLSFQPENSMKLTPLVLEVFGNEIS
Experimental: (§2) Full-length recombinant rat receptor was expressed in E. coli BL21 (DE3) Codon Plus RIL cells and purified to homogeneity using two different column chromatography systems. The first system was a nickel affinity resin that utilizes the C-terminal histidine tag on this protein. The protein that was eluted from this resin was further purified using ion exchange chromatography (S-Sepharose Fast Flow). Aliquots of the purified protein were quick frozen in liquid nitrogen and stored at −80° C. until use. For use in binding assays, the protein was diluted in TEDK50 (50 mM Tris, 1.5 mM EDTA, pH7.4, 5 mM DTT, 150 mM KCl) with 0.1% Chaps detergent. The receptor protein and ligand concentration was optimized such that no more than 20% of the added radiolabeled ligand was bound to the receptor.
(§3) Radiolabeled and unlabeled ligands were added to 100 mcl of the diluted protein at a final ethanol concentration of ≦10%, mixed and incubated overnight on ice to reach binding equilibrium. The following day, 100 mcl of hydroxylapatite slurry (50%) was added to each tube and mixed at 10-minute intervals for 30 minutes. The hydroxylapaptite was collected by centrifugation and then washed three times with Tris-EDTA buffer (50 mM Tris, 1.5 mM EDTA, pH 7.4) containing 0.5% Titron X-100. After the final wash, the pellets were transferred to scintillation vials containing 4 ml of Biosafe II scintillation cocktail, mixed and placed in a scintillation counter. Total binding was determined from the tubes containing only radiolabeled ligand.

[5] = molecular target: T1, full-length recombinant rat vitamin D receptor; assay: biochemical
Experimental: as §2, §3

[6] = Intestinal calcium transport, everted gut sac method, in vitamin D-deficient rats; assay type: in vivo, rat; settings: compared to 1,25(OH)2D3
Experimental: as §1

Structure (SMILES)	EC50 [1] [nM]	EC50 [2] [nM]	bone calcium mobilization activity (serum calcium), in words [3]	potency relative to 1,25(OH)2D3 in increasing transcription of the 24-hydroxylase gene [1]	binding affinity to the receptor compared to the standard 1,25-(OH)2D3, in words [4]	EC50 ([2]; Homo sapiens, HL-60, 96 h) [nM]	mobilization of bone calcium at 780 pmol/day [3]	potency relative to the native hormone in releasing bone calcium stores [3]	Ki [5] [nM]	intestinal calcium transport activity, in words [6]	potency on HL-60 cell differentiation compared to 1,25(OH)2D3, in words [2]
C=C1/C(=C\C=C2/CCC[C@]3(C)[C@@H]([C@H](C)CCCC(C)(C)O)CC[C@@H]23)C[C@@H](O)C[C@@H]1O [1α,25-dihydroxyvitamin D3, reference compound]	0.2	3	increased serum calcium levels	–	–	–	–	–	–	–	–
C=C1/C(=C\C=C2/CCC[C@]3(C)[C@@H]([C@H](C)CCCC(C)(C)O)CC[C@@H]23)C[C@@H](O)C(=C)[C@@H]1O [2EG-R, (20R)-1α,25-dihydroxy-2-methylene-vitamin D3]	0.03	–	more potent than the native hormone	about 10 times	about the same affinity	7	significant mobilization of bone calcium	at least 10 times	0.06	more potent than 1,25(OH)2D3; also recorded: very significant activity	–
C=C1/C(=C\C=C2/CCC[C@]3(C)[C@@H]([C@@H](C)CCCC(C)(C)O)CC[C@@H]23)C[C@@H](O)C(=C)[C@@H]1O [2EG-S, (20S)-1α,25-dihydroxy-2-methylene-vitamin D3]	0.005	–	more potent than the native hormone	about 40 times	about the same affinity	0.06	significant mobilization of bone calcium	at least 10 times	0.1	more potent than 1,25(OH)2D3; also recorded: very significant activity	more potent than 1,25(OH)2D3
C=C1/C(=C/C=C2\CCC[C@]3(C)[C@@H]([C@@H](C)CCCC(C)(C)O)CC[C@@H]23)C[C@@H](O)C(=C)[C@@H]1O [T-2EG-S, (5E)-(20S)-1α,25-dihydroxy-2-methylene-vitamin D3]	–	–	more potent than the native hormone	about 10 times	about the same affinity	0.3	significant mobilization of bone calcium	at least 10 times	0.1	about the same potency as 1,25(OH)2D3; also recorded: very significant activity	more potent than 1,25(OH)2D3
